Experimental data from ChEMBL document CHEMBL5465560, “Selectivity Literature for EUbOPEN Chemogenomic Library” (2024).
Values belong to the compound of their own block, whether it stands above or below them.

Assays:
[1] = target: T1, Dual specificity protein kinase TTK (Homo sapiens) (UniProt P33981); assay: Selectivity interaction (KinomeScan (DiscoverX)) EUB0001079a TTK; details: at 1 µM
T1 sequence (whole entry): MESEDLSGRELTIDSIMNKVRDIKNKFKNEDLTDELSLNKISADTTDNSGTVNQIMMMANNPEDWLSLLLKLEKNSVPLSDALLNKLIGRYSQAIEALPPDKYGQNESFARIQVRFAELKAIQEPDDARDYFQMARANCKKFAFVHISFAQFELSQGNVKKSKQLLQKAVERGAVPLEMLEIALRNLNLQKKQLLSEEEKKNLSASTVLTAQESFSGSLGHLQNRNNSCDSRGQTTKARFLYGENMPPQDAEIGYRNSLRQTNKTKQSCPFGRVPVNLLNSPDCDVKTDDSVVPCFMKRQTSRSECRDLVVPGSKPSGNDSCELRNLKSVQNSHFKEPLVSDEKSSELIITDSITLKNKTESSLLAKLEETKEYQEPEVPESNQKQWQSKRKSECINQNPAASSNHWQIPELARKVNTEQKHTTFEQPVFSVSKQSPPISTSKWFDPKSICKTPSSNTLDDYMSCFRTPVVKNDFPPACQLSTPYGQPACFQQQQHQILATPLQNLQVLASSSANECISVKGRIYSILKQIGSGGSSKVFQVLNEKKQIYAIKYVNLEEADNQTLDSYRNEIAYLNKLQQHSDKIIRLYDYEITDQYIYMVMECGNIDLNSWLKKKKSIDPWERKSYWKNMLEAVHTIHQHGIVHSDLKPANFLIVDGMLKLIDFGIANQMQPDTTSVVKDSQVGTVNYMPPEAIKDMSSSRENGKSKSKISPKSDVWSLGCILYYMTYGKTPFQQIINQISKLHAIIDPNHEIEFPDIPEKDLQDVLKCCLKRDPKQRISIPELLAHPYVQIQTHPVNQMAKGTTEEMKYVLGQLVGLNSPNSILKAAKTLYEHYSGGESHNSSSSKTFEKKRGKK

[2] = target: Ribosomal protein S6 kinase alpha-6 (Homo sapiens, UniProt Q9UK32); assay: Selectivity interaction (SelectScreen profiling (Invitrogen)) EUB0000607a RPS6KA6; details: at 2 µM
Sequence of Ribosomal protein S6 kinase alpha-6 (Q9UK32 whole entry): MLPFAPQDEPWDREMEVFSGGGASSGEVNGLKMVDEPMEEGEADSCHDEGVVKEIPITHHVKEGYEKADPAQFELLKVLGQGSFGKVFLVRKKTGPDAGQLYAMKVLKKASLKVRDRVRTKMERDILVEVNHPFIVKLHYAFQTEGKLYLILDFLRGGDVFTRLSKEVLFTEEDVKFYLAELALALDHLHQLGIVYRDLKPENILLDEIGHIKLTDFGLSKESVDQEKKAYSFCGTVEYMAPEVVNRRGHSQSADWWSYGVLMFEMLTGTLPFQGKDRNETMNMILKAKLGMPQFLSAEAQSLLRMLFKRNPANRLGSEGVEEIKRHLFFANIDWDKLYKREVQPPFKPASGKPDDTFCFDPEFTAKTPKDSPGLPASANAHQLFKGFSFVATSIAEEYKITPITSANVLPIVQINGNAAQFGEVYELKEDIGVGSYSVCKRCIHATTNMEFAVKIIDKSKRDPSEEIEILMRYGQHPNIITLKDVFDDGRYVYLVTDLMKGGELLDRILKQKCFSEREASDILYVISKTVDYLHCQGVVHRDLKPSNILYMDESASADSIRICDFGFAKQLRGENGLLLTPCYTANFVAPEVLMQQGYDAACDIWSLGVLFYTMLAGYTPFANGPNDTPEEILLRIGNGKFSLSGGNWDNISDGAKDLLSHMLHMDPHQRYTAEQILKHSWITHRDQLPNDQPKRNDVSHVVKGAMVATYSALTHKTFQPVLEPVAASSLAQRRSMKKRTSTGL

[3] = target: Tyrosine-protein kinase receptor Tie-1 (Homo sapiens) (UniProt P35590); details: at 10 µM
Sequence of Tyrosine-protein kinase receptor Tie-1 (Homo sapiens) (P35590 whole entry): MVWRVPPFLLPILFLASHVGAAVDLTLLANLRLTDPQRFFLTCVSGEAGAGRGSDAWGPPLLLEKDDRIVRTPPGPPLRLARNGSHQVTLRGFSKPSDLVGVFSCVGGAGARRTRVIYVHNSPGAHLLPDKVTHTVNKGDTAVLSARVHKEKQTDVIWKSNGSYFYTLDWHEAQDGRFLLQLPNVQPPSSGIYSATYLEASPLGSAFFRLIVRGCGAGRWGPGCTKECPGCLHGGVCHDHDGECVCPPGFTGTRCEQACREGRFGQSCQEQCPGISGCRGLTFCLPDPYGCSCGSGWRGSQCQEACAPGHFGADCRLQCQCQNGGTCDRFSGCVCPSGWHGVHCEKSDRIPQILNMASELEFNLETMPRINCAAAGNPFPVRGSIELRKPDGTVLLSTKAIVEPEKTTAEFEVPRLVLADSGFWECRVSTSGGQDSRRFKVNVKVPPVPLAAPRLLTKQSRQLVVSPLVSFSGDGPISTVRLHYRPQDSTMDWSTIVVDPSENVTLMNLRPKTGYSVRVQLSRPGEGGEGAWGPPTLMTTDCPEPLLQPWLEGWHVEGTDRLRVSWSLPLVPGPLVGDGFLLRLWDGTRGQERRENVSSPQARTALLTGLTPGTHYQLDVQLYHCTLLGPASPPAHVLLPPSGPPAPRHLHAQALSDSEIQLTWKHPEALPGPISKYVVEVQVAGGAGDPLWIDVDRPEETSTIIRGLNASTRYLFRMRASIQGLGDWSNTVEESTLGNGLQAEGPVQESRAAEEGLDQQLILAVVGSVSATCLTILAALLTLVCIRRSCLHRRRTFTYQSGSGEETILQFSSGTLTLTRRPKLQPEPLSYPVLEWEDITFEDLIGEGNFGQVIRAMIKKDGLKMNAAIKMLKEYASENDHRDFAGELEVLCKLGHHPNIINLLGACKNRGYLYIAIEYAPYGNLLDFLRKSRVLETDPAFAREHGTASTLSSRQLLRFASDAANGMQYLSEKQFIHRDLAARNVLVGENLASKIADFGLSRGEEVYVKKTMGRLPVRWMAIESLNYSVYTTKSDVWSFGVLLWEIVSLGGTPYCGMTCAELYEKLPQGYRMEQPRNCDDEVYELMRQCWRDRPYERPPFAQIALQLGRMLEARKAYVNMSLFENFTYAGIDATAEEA

[4] = target: Transcription initiation factor TFIID subunit 1 (Homo sapiens) (UniProt P21675); assay: Selectivity interaction (Bromodomain panel (DSF asssay)) EUB0000270b TAF1
[5] = target: Histone acetyltransferase p300 (Homo sapiens) (UniProt Q09472); assay: Selectivity interaction (Transferase panel (protein, RNA, and DNA methyltransferases. and EP300 (acetyltransferase))) EUB0000270b EP300
Sequence of Histone acetyltransferase p300 (Homo sapiens) (Q09472 whole entry): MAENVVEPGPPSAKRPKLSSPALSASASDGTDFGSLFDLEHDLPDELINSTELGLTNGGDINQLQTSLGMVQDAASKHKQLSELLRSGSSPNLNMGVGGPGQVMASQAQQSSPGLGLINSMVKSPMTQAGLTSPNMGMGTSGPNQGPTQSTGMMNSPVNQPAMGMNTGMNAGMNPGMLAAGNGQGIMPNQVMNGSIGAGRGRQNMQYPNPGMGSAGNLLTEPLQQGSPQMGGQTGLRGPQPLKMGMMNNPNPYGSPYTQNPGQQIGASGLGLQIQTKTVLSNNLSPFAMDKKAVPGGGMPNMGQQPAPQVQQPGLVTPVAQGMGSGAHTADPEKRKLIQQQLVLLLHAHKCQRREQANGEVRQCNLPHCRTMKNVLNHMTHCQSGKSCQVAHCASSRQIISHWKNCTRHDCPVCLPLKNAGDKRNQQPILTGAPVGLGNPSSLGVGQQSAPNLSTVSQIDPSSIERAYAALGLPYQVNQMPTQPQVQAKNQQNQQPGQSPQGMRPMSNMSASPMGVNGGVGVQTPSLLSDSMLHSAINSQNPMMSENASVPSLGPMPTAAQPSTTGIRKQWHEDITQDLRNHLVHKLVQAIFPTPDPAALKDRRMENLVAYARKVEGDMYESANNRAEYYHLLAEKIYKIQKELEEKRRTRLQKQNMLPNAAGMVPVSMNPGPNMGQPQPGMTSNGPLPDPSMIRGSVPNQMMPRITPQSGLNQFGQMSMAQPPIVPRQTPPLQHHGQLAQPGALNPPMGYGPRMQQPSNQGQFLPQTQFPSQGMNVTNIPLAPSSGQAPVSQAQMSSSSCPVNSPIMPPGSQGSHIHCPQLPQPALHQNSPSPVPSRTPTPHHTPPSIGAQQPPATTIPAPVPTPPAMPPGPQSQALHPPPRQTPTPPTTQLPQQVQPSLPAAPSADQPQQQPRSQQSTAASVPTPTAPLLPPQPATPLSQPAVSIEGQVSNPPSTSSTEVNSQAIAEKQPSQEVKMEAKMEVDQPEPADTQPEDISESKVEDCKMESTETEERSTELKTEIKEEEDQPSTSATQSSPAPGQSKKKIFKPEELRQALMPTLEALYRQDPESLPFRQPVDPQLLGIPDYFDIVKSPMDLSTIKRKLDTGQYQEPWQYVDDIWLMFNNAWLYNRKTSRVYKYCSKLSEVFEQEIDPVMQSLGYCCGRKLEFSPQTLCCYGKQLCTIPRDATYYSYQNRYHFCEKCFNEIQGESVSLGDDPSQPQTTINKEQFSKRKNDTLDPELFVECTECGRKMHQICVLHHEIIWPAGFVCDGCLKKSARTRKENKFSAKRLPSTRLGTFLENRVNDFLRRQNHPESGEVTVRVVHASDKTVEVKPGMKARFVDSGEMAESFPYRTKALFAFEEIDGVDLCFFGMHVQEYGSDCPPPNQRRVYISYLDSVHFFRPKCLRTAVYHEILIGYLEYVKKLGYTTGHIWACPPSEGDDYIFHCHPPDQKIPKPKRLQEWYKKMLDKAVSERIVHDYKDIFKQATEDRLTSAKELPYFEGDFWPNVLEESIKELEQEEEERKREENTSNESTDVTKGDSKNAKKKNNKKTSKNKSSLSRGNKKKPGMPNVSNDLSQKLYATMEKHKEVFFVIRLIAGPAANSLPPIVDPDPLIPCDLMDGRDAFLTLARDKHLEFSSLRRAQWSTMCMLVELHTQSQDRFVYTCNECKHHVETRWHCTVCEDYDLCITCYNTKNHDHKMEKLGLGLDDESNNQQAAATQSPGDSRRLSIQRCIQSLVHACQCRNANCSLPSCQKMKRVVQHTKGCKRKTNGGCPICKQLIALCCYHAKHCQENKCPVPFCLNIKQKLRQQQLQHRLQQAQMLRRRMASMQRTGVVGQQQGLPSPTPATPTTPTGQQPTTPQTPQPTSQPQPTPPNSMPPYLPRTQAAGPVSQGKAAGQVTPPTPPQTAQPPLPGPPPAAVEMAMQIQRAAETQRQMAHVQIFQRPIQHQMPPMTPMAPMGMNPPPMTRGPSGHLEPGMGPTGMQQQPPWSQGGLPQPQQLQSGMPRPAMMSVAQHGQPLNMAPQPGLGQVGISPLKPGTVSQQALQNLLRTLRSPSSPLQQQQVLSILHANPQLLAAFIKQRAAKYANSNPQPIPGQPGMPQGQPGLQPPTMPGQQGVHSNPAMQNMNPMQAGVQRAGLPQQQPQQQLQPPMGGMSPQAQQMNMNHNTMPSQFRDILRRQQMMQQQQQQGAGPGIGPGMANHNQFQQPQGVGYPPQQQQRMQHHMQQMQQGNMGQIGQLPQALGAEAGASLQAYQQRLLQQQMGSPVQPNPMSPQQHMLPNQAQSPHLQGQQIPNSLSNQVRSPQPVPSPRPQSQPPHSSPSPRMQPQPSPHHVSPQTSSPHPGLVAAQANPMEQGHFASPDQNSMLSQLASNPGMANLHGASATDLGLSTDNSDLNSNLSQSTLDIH

[6] = target: T2, Serine/threonine-protein kinase haspin (Homo sapiens) (UniProt Q8TF76); assay: Selectivity interaction (ProQinase) EUB0000171b GSG2
T2 sequence (whole entry): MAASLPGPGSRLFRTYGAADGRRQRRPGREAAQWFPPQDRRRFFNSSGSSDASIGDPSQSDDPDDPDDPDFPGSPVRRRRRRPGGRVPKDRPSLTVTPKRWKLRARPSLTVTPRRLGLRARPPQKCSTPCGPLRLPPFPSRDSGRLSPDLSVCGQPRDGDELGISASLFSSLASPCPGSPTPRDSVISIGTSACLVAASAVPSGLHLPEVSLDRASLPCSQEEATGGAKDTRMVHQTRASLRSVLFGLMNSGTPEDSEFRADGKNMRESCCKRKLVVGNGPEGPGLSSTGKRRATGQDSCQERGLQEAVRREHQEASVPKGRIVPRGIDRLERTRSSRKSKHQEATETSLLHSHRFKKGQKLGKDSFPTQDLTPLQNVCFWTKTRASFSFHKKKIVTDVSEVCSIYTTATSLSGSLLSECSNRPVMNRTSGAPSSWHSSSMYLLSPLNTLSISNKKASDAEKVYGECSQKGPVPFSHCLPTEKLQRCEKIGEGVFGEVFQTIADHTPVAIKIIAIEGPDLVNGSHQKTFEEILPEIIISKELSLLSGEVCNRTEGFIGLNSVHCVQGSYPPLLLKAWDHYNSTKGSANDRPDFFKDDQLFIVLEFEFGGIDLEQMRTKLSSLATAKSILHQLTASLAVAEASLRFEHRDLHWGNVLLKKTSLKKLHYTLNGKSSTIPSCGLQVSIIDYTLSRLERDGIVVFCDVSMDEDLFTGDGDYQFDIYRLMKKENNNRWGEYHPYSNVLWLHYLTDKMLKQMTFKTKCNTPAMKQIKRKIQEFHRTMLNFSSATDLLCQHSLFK

[7] = target: T3, Mitogen-activated protein kinase 12 (Homo sapiens) (UniProt P53778); assay: Selectivity interaction (KinomeScan (DiscoverX)) EUB0000092b MAPK12; details: at 10 µM
T3 sequence (whole entry): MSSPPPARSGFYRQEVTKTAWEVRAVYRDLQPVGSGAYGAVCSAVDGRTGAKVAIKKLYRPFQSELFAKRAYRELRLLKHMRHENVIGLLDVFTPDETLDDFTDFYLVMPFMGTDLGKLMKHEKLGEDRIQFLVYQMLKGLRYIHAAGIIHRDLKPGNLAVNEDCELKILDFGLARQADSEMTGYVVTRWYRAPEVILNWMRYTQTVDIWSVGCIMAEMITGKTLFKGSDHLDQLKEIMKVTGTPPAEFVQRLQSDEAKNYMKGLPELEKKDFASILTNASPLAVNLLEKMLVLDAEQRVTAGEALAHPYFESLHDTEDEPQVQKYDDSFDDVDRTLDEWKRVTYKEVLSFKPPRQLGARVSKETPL

SMILES: Nc1cnc(N2CCc3cc(S(=O)(=O)Nc4c(F)cc(Cl)cc4F)cc(N4CCCC4=O)c32)nc1 [TP-020n]
% of control [1]: 90%

SMILES: CNC(=O)Nc1ccc(-c2nc(N3CC4CCC(C3)O4)c3cnn(C4CCC5(CC4)OCCO5)c3n2)cc1
% of inhibition [2]: 12%

SMILES: Cc1cc([C@@H](C)Nc2ccccc2C(=O)O)c2nc(N3CCOCC3)cc(=O)n2c1 [AZD-6482]
% of control [3]: 100%

dTM [4]: -1.15 K | % activity ([5]; at 1 µM): > 90% | % activity ([5]; at 10 µM): > 80%
SMILES: Cc1cc(CN)cc(C)c1-c1ncn(C)c1-c1cncn1C

% of control ([6]; at 1 µM): 84% | % of control ([6]; at 5 µM): 56%
SMILES: C=CC(=O)Nc1cccc(C(=O)Nc2ccc(Nc3cc(-c4[nH]c(SC)nc4C)ccn3)cc2)c1

SMILES: CCC(=O)N1CCN(c2ccc(-n3c(=O)ccc4cnc5ccc(-c6cnc7ccccc7c6)cc5c43)cc2C(F)(F)F)CC1
% of control [7]: 71%
